Drawing on patent publication US8580829B2 (Boehringer Ingelheim International GmbH, priority 2010, dated 2013), this text covers IC50 for 25 compounds.

Experiment [1] addresses T1, recombinant human FLAP protein (Homo sapiens, UniProt P20292).
T1 construct: made in house; host or cells: Sf9 insect cells (100,000 x g membrane fraction)
T1 sequence (P20292 1-161): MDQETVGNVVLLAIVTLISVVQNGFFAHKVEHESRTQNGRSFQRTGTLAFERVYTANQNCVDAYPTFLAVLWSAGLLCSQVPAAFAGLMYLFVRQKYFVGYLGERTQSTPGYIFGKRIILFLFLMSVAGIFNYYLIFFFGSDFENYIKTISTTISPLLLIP
As to the kind of experiment: FLAP binding assay (Scintillation Proximity Assay, displacement of [125I]L-691,831). Conditions: recombinant human FLAP membranes, [125I]L-691,831 probe; read-out: FLAP SPA IC50. Put shortly: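 Membranes came from Sf9 insect cells expressing recombinant human FLAP, collected as the 100,000×g pellet in Tris pH 7.5/MgCl2/EDTA buffer. 5 μg membrane protein was coupled to WGA SPA beads for 1 h.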
On the technique in general: Scintillation proximity formats need no separation of bound from free tracer.

For experiment [2], the system named is synthesis of LTB4 in human whole blood. As to the kind of experiment: human whole blood LTB4 production inhibition assay. The class given is cell-based. The settings on record: heparinized human whole blood, calcimycin 20 μM, read-out: hWB LTB4 IC50. Put shortly:
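Heparinized human whole blood was preincubated with compound for 15 min at 37° C, then stimulated with calcimycin (20 μM final, in PBS pH 7.4) for a further 30 min at 37° C. Plasma LTB4 was quantified by antibody-based homogeneous time-resolved fluorescence.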

Where two headings read alike, the source gives them in different places. A value given as a limit tells only on which side of the number the result lay.

As to `Cn1cc(-c2nc(C3(c4ccc(-c5cnc(N)nc5)cc4F)CCC3)no2)cn1` [Example 117, 5-(3-Fluoro-4-{1-[5-(1-methyl-1H-pyrazol-4-yl)-1,2,4-oxadiazol-3-yl]-cyclobutyl}-phenyl)-pyrimidin-2-ylamine], the values for the IC50 in experiment [1] and in experiment [2] (Homo sapiens) were 2.6 nM and 140 nM, respectively.
On the same counts, the results for `CNC(=O)Cn1cccc(-c2nc(C3(c4ccc(-c5cnc(N)nc5)cc4)CCC3)no2)c1=O` [Example 118, 2-[3-(3-{1-[4-(2-amino-pyrimidin-5-yl)-phenyl]-cyclobutyl}-1,2,4-oxadiazol-5-yl)-2-oxo-2H-pyridin-1-yl]-N-methyl-acetamide] are 21 nM and 1700 nM.
For the compound `CN(C)C(=O)Cn1cccc(-c2nc(C3(c4ccc(-c5cnc(N)nc5)cc4)CCC3)no2)c1=O` [Example 119, 2-[3-(3-{1-[4-(2-Amino-pyrimidin-5-yl)-phenyl]-cyclobutyl}-1,2,4-oxadiazol-5-yl)-2-oxo-2H-pyridin-1-yl]-N,N-dimethyl-acetamide], the IC50 in experiment [1] turned out to be 40 nM; in experiment [2] (Homo sapiens), 790 nM.
For `CC(C)(O)CNc1cnc(-c2nc(C3(c4ccc(-c5cnc(N)nc5)cc4)CCC3)no2)cn1` [Example 120, 1-[5-(3-{1-[4-(2-Amino-pyrimidin-5-yl)-phenyl]-cyclobutyl}-1,2,4-oxadiazol-5-yl)-pyrazin-2-ylamino]-2-methyl-propan-2-ol], in that order: 9.1 nM and 740 nM.
For `CC(C)(CO)Nc1cnc(-c2nc(C3(c4ccc(-c5cnc(N)nc5)cc4)CCC3)no2)cn1` [Example 121, 2-[5-(3-{1-[4-(2-Amino-pyrimidin-5-yl)-phenyl]-cyclobutyl}-1,2,4-oxadiazol-5-yl)-pyrazin-2-ylamino]-2-methyl-propan-1-ol], in that order: 4.9 nM and 450 nM.
For `Cn1cc(-c2nc(C3(c4ccc(-c5cnc(N)nc5)cc4)CC(F)(F)C3)no2)cn1` [Example 122, 5-(4-{3,3-Difluoro-1-[5-(1-methyl-1H-pyrazol-4-yl)-1,2,4-oxadiazol-3-yl]-cyclobutyl}-phenyl)-pyrimidin-2-ylamine], the half-inhibitory concentration (IC50) in experiment [1] worked out at 14 nM; in experiment [2] (Homo sapiens), 360 nM.
For `Cn1cc(-c2nc(C3(c4ccc(-c5cnc(N)nc5)cc4)CC(C)(C)C3)no2)cn1` [Example 123, 5-(4-{3,3-Dimethyl-1-[5-(1-methyl-1H-pyrazol-4-yl)-1,2,4-oxadiazol-3-yl]-cyclobutyl}-phenyl)-pyrimidin-2-ylamine], the IC50 in experiment [1] worked out at 35 nM; in experiment [2] (Homo sapiens) it was 1500 nM.
In the case of `Nc1ncc(-c2ccc(C3(c4noc(-c5cnc(N6CCNCC6)cn5)n4)CCC3)cc2)cn1` [Example 124, 5-(4-{1-[5-(3,4,5,6-Tetrahydro-1H-1,2′-bipyrazinyl-5′-yl)-1,2,4-oxadiazol-3-yl]-cyclobutyl}-phenyl)-pyrimidin-2-ylamine], the IC50 in experiment [1] is 3.5 nM; in experiment [2] it was over 5000 nM.
With `COC(=O)[C@H]1CN(c2cnc(-c3nc(C4(c5ccc(-c6cnc(N)nc6)cc5)CCC4)no3)cn2)CCN1` [Example 125, (R)-5′-(3-{1-[4-(2-Amino-pyrimidin-5-yl)-phenyl]-cyclobutyl}-1,2,4-oxadiazol-5-yl)-3,4,5,6-tetrahydro-2H-1,2′-bipyrazinyl-3-carboxylic acid methyl ester], the figures for the IC50 in experiment [1] and in experiment [2] were 5 nM and over 5000 nM, respectively.
On the same counts, the results for `COC(=O)[C@@H]1CN(c2cnc(-c3nc(C4(c5ccc(-c6cnc(N)nc6)cc5)CCC4)no3)cn2)CCN1` [Example 126, (S)-5′-(3-{1-[4-(2-Amino-pyrimidin-5-yl)-phenyl]-cyclobutyl}-1,2,4-oxadiazol-5-yl)-3,4,5,6-tetrahydro-2H-1,2′-bipyrazinyl-3-carboxylic acid methyl ester] are 5.7 nM and over 5000 nM.
On to `Nc1ncc(-c2ccc(C3(c4noc(-c5cnn(CC(=O)N6CCCCC6)c5)n4)CCC3)cc2)cn1` [Example 127, 2-[4-(3-{1-[4-(2-Amino-pyrimidin-5-yl)-phenyl]-cyclobutyl}-1,2,4-oxadiazol-5-yl)-pyrazol-1-yl]-1-piperidin-1-yl-ethanone], for which the IC50 amounted to 3.2 nM in experiment [1] and 120 nM in experiment [2] (Homo sapiens).
For `CN(C)C(=O)C(C)(C)n1cc(-c2nc(C3(c4ccc(-c5cnc(N)nc5)cc4)CCC3)no2)cn1` [Example 128, 2-[4-(3-{1-[4-(2-amino-pyrimidin-5-yl)-phenyl]-cyclobutyl}-1,2,4-oxadiazol-5-yl)-pyrazol-1-yl]-N,N-dimethyl-isobutyramide], in that order: 6.7 nM and 180 nM.
As to `CN(C)C(=O)C(C)(C)Cn1cc(-c2nc(C3(c4ccc(-c5cnc(N)nc5)cc4)CCC3)no2)cn1` [Example 129, 3-[4-(3-{1-[4-(2-Amino-pyrimidin-5-yl)-phenyl]-cyclobutyl}-1,2,4-oxadiazol-5-yl)-pyrazol-1-yl]-2,2,N,N-tetramethyl-propionamide], the results for the half-maximal inhibitory concentration (IC50) in experiment [1] and in experiment [2] (Homo sapiens) were 3.9 nM and 140 nM, respectively.
For `CCNC(=O)Cn1cc(-c2nc(C3(c4ccc(-c5cnc(N)nc5)cc4)CCC3)no2)cn1` [Example 130, 2-[4-(3-{1-[4-(2-Amino-pyrimidin-5-yl)-phenyl]-cyclobutyl}-1,2,4-oxadiazol-5-yl)-pyrazol-1-yl]-N-ethyl-acetamide], in that order: 1.5 nM and 75 nM.
On the same counts, the results for `CCN(CC)C(=O)Cn1cc(-c2nc(C3(c4ccc(-c5cnc(N)nc5)cc4)CCC3)no2)cn1` [Example 131, 2-[4-(3-{1-[4-(2-Amino-pyrimidin-5-yl)-phenyl]-cyclobutyl]-1,2,4-oxadiazol-5-yl)-pyrazol-1-yl]-N,N-diethyl-acetamide] are 3.9 nM and 88 nM.
On the same counts, the results for `Nc1ncc(-c2ccc(C3(c4noc(-c5cnn(CC(=O)NC6CC6)c5)n4)CCC3)cc2)cn1` [Example 132, 2-[4-(3-{1-[4-(2-Amino-pyrimidin-5-yl)-phenyl]-cyclobutyl}-1,2,4-oxadiazol-5-yl)-pyrazol-1-yl]-N-cyclopropyl-acetamide] are 2.8 nM and 69 nM.
Regarding `CC(C(=O)N(C)C)n1cc(-c2nc(C3(c4ccc(-c5cnc(N)nc5)cc4)CCC3)no2)cn1` (centres unmarked) [Example 133, 2-[4-(3-{1-[4-(2-Amino-pyrimidin-5-yl)-phenyl]-cyclobutyl}-1,2,4-oxadiazol-5-yl)-pyrazol-1-yl]-N,N-dimethyl-propionamide], the IC50 turned out to be 4.3 nM in experiment [1] and 72 nM in experiment [2] (Homo sapiens).
On the same counts, the results for `Nc1ncc(-c2ccc(C3(c4noc(-c5cnn(CC(=O)N6CCOCC6)c5)n4)CCC3)cc2)cn1` [Example 134, 2-[4-(3-{1-[4-(2-Amino-pyrimidin-5-yl)-phenyl]-cyclobutyl}-1,2,4-oxadiazol-5-yl)-pyrazol-1-yl]-1-morpholin-4-yl-ethanone] are 5.8 nM and 120 nM.
For `CN(C)S(=O)(=O)n1cc(-c2nc(C3(c4ccc(-c5cnc(N)nc5)cc4)CCC3)no2)cn1` [Example 135], in that order: 10.4 nM and 190 nM.
For `CN(C)C(=O)n1cc(-c2nc(C3(c4ccc(-c5cnc(N)nc5)cc4)CCC3)no2)cn1` [Example 136, 4-(3-{1-[4-(2-Amino-pyrimidin-5-yl)-phenyl]-cyclobutyl}-1,2,4-oxadiazol-5-yl)-pyrazole-1-carboxylic acid dimethylamide], in that order: 1.5 nM and 66 nM.
On to `Nc1ncc(-c2ccc(C3(c4noc(-c5cnn(CC(=O)N6CCCC6)c5)n4)CCC3)cc2)cn1` [Example 137, 2-[4-(3-{1-[4-(2-Amino-pyrimidin-5-yl)-phenyl]-cyclobutyl}-1,2,4-oxadiazol-5-yl)-pyrazol-1-yl]-1-pyrrolidin-1-yl-ethanone], for which the half-maximal inhibitory concentration (IC50) in experiment [1] worked out at 7.7 nM; in experiment [2] (Homo sapiens) it was 170 nM.
For `CCN(C)C(=O)Cn1cc(-c2nc(C3(c4ccc(-c5cnc(N)nc5)cc4)CCC3)no2)cn1` [Example 138, 2-[4-(3-{1-[4-(2-Amino-pyrimidin-5-yl)-phenyl]-cyclobutyl}-1,2,4-oxadiazol-5-yl)-pyrazol-1-yl]-N-ethyl-N-methyl-acetamide], in that order: 2.8 nM and 38 nM.
For `CC(C)N(C)C(=O)Cn1cc(-c2nc(C3(c4ccc(-c5cnc(N)nc5)cc4)CCC3)no2)cn1` [Example 139, 2-[4-(3-{1-[4-(2-Amino-pyrimidin-5-yl)-phenyl]-cyclobutyl}-1,2,4-oxadiazol-5-yl)-pyrazol-1-yl]-N-isopropyl-N-methyl-acetamide], in that order: 2.6 nM and 95 nM.
For `Nc1ncc(-c2ccc(C3(c4noc(-c5cnn(CC(=O)NCC(F)(F)F)c5)n4)CCC3)cc2)cn1` [Example 140, 2-[4-(3-{1-[4-(2-Amino-pyrimidin-5-yl)-phenyl]-cyclobutyl}-1,2,4-oxadiazol-5-yl)-pyrazol-yl]-N-(2,2,2-trifluoro-ethyl)-acetamide], in that order: 4.4 nM and 68 nM.
Consider `CN(C(=O)Cn1cc(-c2nc(C3(c4ccc(-c5cnc(N)nc5)cc4)CCC3)no2)cn1)C1CC1` [Example 141, 2-[4-(3-{1-[4-(2-Amino-pyrimidin-5-yl)-phenyl]-cyclobutyl]-1,2,4-oxadiazol-5-yl)-pyrazol-1-yl]-N-cyclopropyl-N-methyl-acetamide], for which the concentration for half-maximal inhibition (IC50) is 0.9 nM in experiment [1] and 43 nM in experiment [2] (Homo sapiens).

In general, IC50 refers to the concentration that inhibits the measured activity by half.
